Biological target: T1, HCV NS5B RdRp genotype 1b (Hepatitis C virus genotype 1b, UniProt Q9WMX2)
T1 construct: The protein was expressed with an 18 amino acid C-terminal truncation to enhance the solubility; made in house; host or cells: E. coli BL21 (DE3), pET21a
Assay: Modified HCV NS5B RdRp enzyme assay (with preincubation)
Format: biochemical
Conditions: modified method (with preincubation)
Method in brief: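 Seven-point IC50s were derived from SPA-based ³H-UTP incorporation after 4 h at 30 °C (Hepes pH 7.5, 2% DMSO). Compound was first mixed with 14 nM Δ18 NS5B genotype 1b enzyme. Then 0.2 nM polyA, 0.29 μM UTP and bead-bound oligo-dT12 (20 nM) were added.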

T1 sequence (Q9WMX2 2420-2992): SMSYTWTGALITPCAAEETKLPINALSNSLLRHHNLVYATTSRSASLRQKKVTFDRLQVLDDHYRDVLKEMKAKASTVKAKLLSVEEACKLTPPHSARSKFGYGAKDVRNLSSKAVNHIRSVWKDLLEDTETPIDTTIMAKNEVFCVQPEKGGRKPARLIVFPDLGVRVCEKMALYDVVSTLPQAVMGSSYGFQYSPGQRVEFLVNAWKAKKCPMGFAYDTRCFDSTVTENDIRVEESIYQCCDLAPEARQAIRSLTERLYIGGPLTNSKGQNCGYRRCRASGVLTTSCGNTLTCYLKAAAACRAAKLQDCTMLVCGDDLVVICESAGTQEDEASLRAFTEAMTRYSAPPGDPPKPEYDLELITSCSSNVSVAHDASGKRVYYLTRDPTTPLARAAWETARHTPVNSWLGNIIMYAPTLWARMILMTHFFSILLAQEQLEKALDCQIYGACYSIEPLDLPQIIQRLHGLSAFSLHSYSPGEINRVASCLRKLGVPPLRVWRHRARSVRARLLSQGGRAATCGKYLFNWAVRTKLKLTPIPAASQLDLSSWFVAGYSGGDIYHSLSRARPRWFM

First: O=C(O)c1ccc2c(C3CCCCC3)c3n(c2c1)CC(C(=O)N1CCOCC1)Cc1ccncc1-3 (stereo not shown)
Second: O=C(c1ccc2c(C3CCCCC3)c3n(c2c1)CC(C(=O)N1CCOCC1)Cc1ccccc1-3)N1CCOCC1 (stereo not shown)
The IC50 of the first is lower: 20 to 1000 nM for the first, > 1000 nM for the second.

COC(=O)c1ccc(CN(C)S(=O)(=O)NC(=O)c2ccc3c(C4CCCCC4)c4n(c3c2)CC(=O)Nc2ccccc2-4)cc1 and COC(=O)/C=C/c1ccc(CN(C)S(=O)(=O)NC(=O)c2ccc3c(C4CCCCC4)c4n(c3c2)CC(=O)Nc2ccccc2-4)cc1 fall in the same range of IC50: 20 to 1000 nM for the first, 20 to 1000 nM for the second.

O=C1Cn2c(c(C3CCCCC3)c3ccc(C(=O)NC4(C(=O)Nc5ncc(-c6ccc(C(=O)O)cc6)s5)CCCC4)cc32)-c2ccccc2N1 and O=C(O)/C=C/c1ccc(NC(=O)C2(NC(=O)c3ccc4c(C5CCCCC5)c5n(c4c3)C[C@@H](O)[C@@H](O)c3ccccc3-5)CCCC2)cc1 fall in the same range of IC50: 20 to 1000 nM for the first, 20 to 1000 nM for the second.

O=C(O)/C=C/c1ccc(NC(=O)C2(NC(=O)c3ccc4c(C5CCCCC5)c5n(c4c3)CCCc3ccccc3-5)CCNCC2)cc1 [drawing 160] and O=C(O)/C=C/c1ccc(NC(=O)C2(NC(=O)c3ccc4c(C5CCCCC5)c5n(c4c3)CC(C(=O)N3CCN(c4ccncc4)CC3)Cc3ccccc3-5)CCCC2)cc1 (stereo not shown) fall in the same range of IC50: 20 to 1000 nM for the first, 20 to 1000 nM for the second.

CS(=O)(=O)NC(=O)c1ccc2c(C3CCCCC3)c3n(c2c1)CC=Cc1ncccc1-3 and CN(C)S(=O)(=O)NC(=O)c1ccc2c(C3CCCCC3)c3n(c2c1)C[C@@H](O)[C@@H](O)c1ncccc1-3 fall in the same range of IC50: 20 to 1000 nM for the first, 20 to 1000 nM for the second.

CN(C)S(=O)(=O)NC(=O)c1ccc2c(C3CCCCC3)c3n(c2c1)C[C@H](C(=O)N1CCOCC1)Cc1ccccc1-3 and CC(C)S(=O)(=O)NC(=O)c1ccc2c(C3CCCCC3)c3n(c2c1)CC(C(=O)N1CCOCC1)Cc1ccccc1-3 (stereo not shown) fall in the same range of IC50: 20 to 1000 nM for the first, 20 to 1000 nM for the second.

CCN(C)S(=O)(=O)NC(=O)c1ccc2c(C3CCCCC3)c3n(c2c1)CC(C(=O)N1CCOCC1)=Cc1ccccc1-3 and CN(C)S(=O)(=O)NC(=O)c1ccc2c(C3CCCCC3)c3n(c2c1)CC(C(=O)N1CCCOCC1)=Cc1ccccc1-3 fall in the same range of IC50: 20 to 1000 nM for the first, 20 to 1000 nM for the second.

O=C(O)c1ccc2c(C3CCCCC3)c3n(c2c1)CCOc1ncccc1-3 and O=C1Cc2ccccc2-c2c(C3CCCCC3)c3ccc(C(=O)O)cc3n2C1 fall in the same range of IC50: 20 to 1000 nM for the first, 20 to 1000 nM for the second.

CN(C)S(=O)(=O)NC(=O)c1ccc2c(C3CCCCC3)c3n(c2c1)CC(C(=O)N1CCN(c2ccncc2)CC1)=Cc1ccccc1-3 and CN(C)C(=O)N1CCn2c(c(C3CCCCC3)c3ccc(C(=O)NS(=O)(=O)N(C)C)cc32)-c2ccccc21 fall in the same range of IC50: 20 to 1000 nM for the first, 20 to 1000 nM for the second.

First: COC(=O)c1ccc2c(C3CCCCC3)c3n(c2c1)CC(CO)Cc1ccccc1-3 (stereo not shown)
Second: CN(C(=O)c1ccc2c(C3CCCCC3)c3n(c2c1)CCCc1ccccc1-3)C1(C(=O)O)CCCC1
The IC50 of the first is higher: > 1000 nM for the first, 20 to 1000 nM for the second.

CN(C)CCNC(=O)C1=Cc2ccccc2-c2c(C3CCCCC3)c3ccc(C(=O)O)cc3n2C1 and CN(C)S(=O)(=O)NC(=O)c1ccc2c(C3CCCCC3)c3n(c2c1)C[C@@H](C(=O)N1CCC(N2CCCC2)CC1)Cc1ccccc1-3 fall in the same range of IC50: 20 to 1000 nM for the first, 20 to 1000 nM for the second.

CN(C)S(=O)(=O)NC(=O)c1ccc2c(c1)N1C(O)c3cc(OCc4ccccc4)ccc3C1C2 (stereo not shown) showed an IC50 of 20 to 1000 nM.

System: HCV replicon
Assay: HCV replicon FRET assay
Format: cell-based
Conditions: Hepatitis C virus; FRET assay; read-out: EC50
Method in brief: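 Replicon cells (± Renilla luciferase reporter) incubated with titrated compound at 37 °C; NS3 protease activity read by FRET peptide cleavage (20 uM EDANS/DABCYL substrate, 340/490 nm kinetic) or luciferase.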

O=C(O)c1ccc2c(C3CCCCC3)c3n(c2c1)CC(C(=O)N1CCOCC1)Cc1ccncc1-3 (stereo not shown) and O=C(c1ccc2c(C3CCCCC3)c3n(c2c1)CC(C(=O)N1CCOCC1)Cc1ccccc1-3)N1CCOCC1 (stereo not shown) fall in the same range of EC50: 10 to 1000 nM for the first, 10 to 1000 nM for the second.

COC(=O)c1ccc(CN(C)S(=O)(=O)NC(=O)c2ccc3c(C4CCCCC4)c4n(c3c2)CC(=O)Nc2ccccc2-4)cc1 and COC(=O)/C=C/c1ccc(CN(C)S(=O)(=O)NC(=O)c2ccc3c(C4CCCCC4)c4n(c3c2)CC(=O)Nc2ccccc2-4)cc1 fall in the same range of EC50: 10 to 1000 nM for the first, 10 to 1000 nM for the second.

O=C1Cn2c(c(C3CCCCC3)c3ccc(C(=O)NC4(C(=O)Nc5ncc(-c6ccc(C(=O)O)cc6)s5)CCCC4)cc32)-c2ccccc2N1 and O=C(O)/C=C/c1ccc(NC(=O)C2(NC(=O)c3ccc4c(C5CCCCC5)c5n(c4c3)C[C@@H](O)[C@@H](O)c3ccccc3-5)CCCC2)cc1 fall in the same range of EC50: 10 to 1000 nM for the first, 10 to 1000 nM for the second.

O=C(O)/C=C/c1ccc(NC(=O)C2(NC(=O)c3ccc4c(C5CCCCC5)c5n(c4c3)CCCc3ccccc3-5)CCNCC2)cc1 [drawing 160] and O=C(O)/C=C/c1ccc(NC(=O)C2(NC(=O)c3ccc4c(C5CCCCC5)c5n(c4c3)CC(C(=O)N3CCN(c4ccncc4)CC3)Cc3ccccc3-5)CCCC2)cc1 (stereo not shown) fall in the same range of EC50: 10 to 1000 nM for the first, 10 to 1000 nM for the second.

CS(=O)(=O)NC(=O)c1ccc2c(C3CCCCC3)c3n(c2c1)CC=Cc1ncccc1-3 and CN(C)S(=O)(=O)NC(=O)c1ccc2c(C3CCCCC3)c3n(c2c1)C[C@@H](O)[C@@H](O)c1ncccc1-3 cannot be ordered by EC50: > 10000 nM for the first, > 10000 nM for the second.

CN(C)S(=O)(=O)NC(=O)c1ccc2c(C3CCCCC3)c3n(c2c1)C[C@H](C(=O)N1CCOCC1)Cc1ccccc1-3 and CC(C)S(=O)(=O)NC(=O)c1ccc2c(C3CCCCC3)c3n(c2c1)CC(C(=O)N1CCOCC1)Cc1ccccc1-3 (stereo not shown) fall in the same range of EC50: 10 to 1000 nM for the first, 10 to 1000 nM for the second.

CCN(C)S(=O)(=O)NC(=O)c1ccc2c(C3CCCCC3)c3n(c2c1)CC(C(=O)N1CCOCC1)=Cc1ccccc1-3 and CN(C)S(=O)(=O)NC(=O)c1ccc2c(C3CCCCC3)c3n(c2c1)CC(C(=O)N1CCCOCC1)=Cc1ccccc1-3 fall in the same range of EC50: 10 to 1000 nM for the first, 10 to 1000 nM for the second.

O=C(O)c1ccc2c(C3CCCCC3)c3n(c2c1)CCOc1ncccc1-3 and O=C1Cc2ccccc2-c2c(C3CCCCC3)c3ccc(C(=O)O)cc3n2C1 fall in the same range of EC50: 1000 to 10000 nM for the first, 1000 to 10000 nM for the second.

CN(C)S(=O)(=O)NC(=O)c1ccc2c(C3CCCCC3)c3n(c2c1)CC(C(=O)N1CCN(c2ccncc2)CC1)=Cc1ccccc1-3 and CN(C)C(=O)N1CCn2c(c(C3CCCCC3)c3ccc(C(=O)NS(=O)(=O)N(C)C)cc32)-c2ccccc21 fall in the same range of EC50: 10 to 1000 nM for the first, 10 to 1000 nM for the second.

Compared with COC(=O)c1ccc2c(C3CCCCC3)c3n(c2c1)CC(CO)Cc1ccccc1-3 (stereo not shown), CN(C(=O)c1ccc2c(C3CCCCC3)c3n(c2c1)CCCc1ccccc1-3)C1(C(=O)O)CCCC1 is higher in EC50: 10 to 1000 nM for the first, > 10000 nM for the second. The first is the more potent here.

CN(C)CCNC(=O)C1=Cc2ccccc2-c2c(C3CCCCC3)c3ccc(C(=O)O)cc3n2C1 and CN(C)S(=O)(=O)NC(=O)c1ccc2c(C3CCCCC3)c3n(c2c1)C[C@@H](C(=O)N1CCC(N2CCCC2)CC1)Cc1ccccc1-3 fall in the same range of EC50: 10 to 1000 nM for the first, 10 to 1000 nM for the second.

CN(C)S(=O)(=O)NC(=O)c1ccc2c(c1)N1C(O)c3cc(OCc4ccccc4)ccc3C1C2 (stereo not shown) was tested, and the EC50 was 10 to 1000 nM.

Source: patent US7348425B2, “Inhibitors of HCV replication” (Bristol-Myers Squibb Company, priority 2004, dated 2008)
